We go through 2 molecules from paper PMC5642509, “A small-molecule inhibitor targeting the AURKC–IκBα interaction decreases transformed growth of MDA-MB-231 breast cancer cells” (Oncotarget, 2017).

In one experiment the target is T1, Aurora C (AURKC) (Homo sapiens, UniProt Q9UQB9).
T1 construct: recombinant active AURKC
T1 sequence (Q9UQB9 1-309): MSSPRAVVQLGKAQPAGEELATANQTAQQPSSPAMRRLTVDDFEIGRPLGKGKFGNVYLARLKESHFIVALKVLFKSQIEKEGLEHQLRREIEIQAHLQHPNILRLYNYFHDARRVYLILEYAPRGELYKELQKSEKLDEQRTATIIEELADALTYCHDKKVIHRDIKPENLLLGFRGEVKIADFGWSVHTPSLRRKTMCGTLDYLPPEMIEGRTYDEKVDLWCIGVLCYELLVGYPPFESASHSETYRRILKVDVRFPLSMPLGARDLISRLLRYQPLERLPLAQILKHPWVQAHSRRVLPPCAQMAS
The experiment is described as follows: ATP-competition kinase assay, active AURKC and purified IκBα, pS32 immunoblot (GSK1070916 […], various ATP). Type of experiment: biochemical. On the technique in general: Immunoblotting shows a protein as a band on a membrane.

The target of another experiment is T2, pBIND-AURKC (human, UniProt Q9UQB9 1-309).
T2 construct: Aurora C kinase (AURKC); also called pM-BD-pAURKC; source: mammalian two-hybrid fusion, transfected cells
T2 sequence (looked up): T1 sequence (Q9UQB9 1-309)
The experiment is described as follows: two-hybrid; mammalian two-hybrid: pBIND-AURKC, pACT-IκBα and pG5-luciferase transfected in equal amounts; luciferase read-out normalised against the control. Conditions: partners not purified.

Consider `CCn1cc(-c2ccnc3[nH]c(-c4cccc(CN(C)C)c4)cc23)c(-c2ccc(NC(=O)N(C)C)cc2)n1` [GSK1070916], for which the “ATP-competition kinase assay, active AURKC and purified IκBα, pS32 immunoblot (G)” value at Aurora C (AURKC) is “the inhibitory activity of GSK1070916 was inversely proportional to the concentration of ATP (Figure 6E and 6F)”.

B1: pACT-IκBα (natural protein, human, UniProt P25963 1-317, looked up)
chain: MFQAAERPQEWAMEGPRDGLKKERLLDDRHDSGLDSMKDEEYEQMVKELQEIRLEPQEVPRGSEPWKQQLTEDGDSFLHLAIIHEEKALTMEVIRQVKGDLAFLNFQNNLQQTPLHLAVITNQPEIAEALLGAGCDPELRDFRGNTPLHLACEQGCLASVGVLTQSCTTPHLHSILKATNYNGHTCLHLASIHGYLGIVELLVSLGADVNAQEPCNGRTALHLAVDLQNPDLVSLLLKCGADVNRVTYQGYSPYQLTWGRPSTRIQQQLGQLTLENLQMLPESEDEESYDTESEFTEFTEDELPYDDCVFGGQRLTL
notes: IκBα; also called pVP-IκBα; source: mammalian two-hybrid fusion, transfected cells
B1: the “fold luciferase activity over the Bind-AURKC vector” value with pBIND-AURKC was around 2.7 fold.
